Read-outs that look alike come from different tables or passages of the source.
Tests used:
COLO 205 = test: NCI human tumor cell line panel, Colon Cancer; format: cell-based
SW-620 = test: NCI human tumor cell line panel, Colon Cancer

C=C1C(=O)O[C@H]2[C@H]1CC/C(COC(=O)c1cc3ccccc3[nH]1)=C\CC[C@@]1(C)O[C@@H]21 [BS-1-28]
CC50 (RXF 393): 6230 nM
Percent Growth (RXF 393; RXF 393, Log10 Concentration −4.0): −65%
Percent Growth (RXF 393; RXF 393, Log10 Concentration −5.0): −77%
Percent Growth (RXF 393; RXF 393, Log10 Concentration −6.0): 54%
Percent Growth (RXF 393; RXF 393, Log10 Concentration −7.0): 85%
Percent Growth (RXF 393; RXF 393, Log10 Concentration −8.0): 73%
GI50 (RXF 393; RXF 393, NCI five dose): 1070 nM
TGI (RXF 393; RXF 393, NCI five dose): 2.58E−6
CC50 (BT-549): 2640 nM
Percent Growth (BT-549; BT-549, Log10 Concentration −4.0): −99%
Percent Growth (BT-549; BT-549, Log10 Concentration −5.0): −88%
Percent Growth (BT-549; BT-549, Log10 Concentration −6.0): −22%
Percent Growth (BT-549; BT-549, Log10 Concentration −7.0): 14%
Percent Growth (BT-549; BT-549, Log10 Concentration −8.0): −30%
GI50 (BT-549; BT-549, NCI five dose): < 10 nM
GI50 (BT-549; BT-549 breast cancer cell line): < 10 nM
Percent Growth (COLO 205; Log10 Concentration −4.0): −63%
Percent Growth (COLO 205; Log10 Concentration −5.0): −61%
Percent Growth (COLO 205; Log10 Concentration −6.0): 39%
Percent Growth (COLO 205; Log10 Concentration −7.0): 60%
Percent Growth (COLO 205; Log10 Concentration −8.0): 27%
TGI (COLO 205; NCI five dose): 2.44E−6
CC50 (MDA-MB-231/ATCC): 8560 nM
Percent Growth (MDA-MB-231/ATCC; MDA-MB-231/ATCC, Log10 Concentration −4.0): −73%
Percent Growth (MDA-MB-231/ATCC; MDA-MB-231/ATCC, Log10 Concentration −5.0): −58%
Percent Growth (MDA-MB-231/ATCC; MDA-MB-231/ATCC, Log10 Concentration −6.0): 56%
Percent Growth (MDA-MB-231/ATCC; MDA-MB-231/ATCC, Log10 Concentration −7.0): 87%
Percent Growth (MDA-MB-231/ATCC; MDA-MB-231/ATCC, Log10 Concentration −8.0): 89%
GI50 (MDA-MB-231/ATCC; MDA-MB-231/ATCC, NCI five dose): 1140 nM
TGI (MDA-MB-231/ATCC; MDA-MB-231/ATCC, NCI five dose): 3.12E−6
CC50 (NCI-H226): 7010 nM
Percent Growth (NCI-H226; NCI-H226, Log10 Concentration −4.0): −71%
Percent Growth (NCI-H226; NCI-H226, Log10 Concentration −5.0): −73%
Percent Growth (NCI-H226; NCI-H226, Log10 Concentration −6.0): 74%
Percent Growth (NCI-H226; NCI-H226, Log10 Concentration −7.0): 88%
Percent Growth (NCI-H226; NCI-H226, Log10 Concentration −8.0): 92%
GI50 (NCI-H226; NCI-H226, NCI five dose): 1470 nM
TGI (NCI-H226; NCI-H226, NCI five dose): 3.21E−6
CC50 (OVCAR-8): 64600 nM
Percent Growth (OVCAR-8; OVCAR-8, Log10 Concentration −4.0): −63%
Percent Growth (OVCAR-8; OVCAR-8, Log10 Concentration −5.0): 5%
Percent Growth (OVCAR-8; OVCAR-8, Log10 Concentration −6.0): 69%
Percent Growth (OVCAR-8; OVCAR-8, Log10 Concentration −7.0): 63%
Percent Growth (OVCAR-8; OVCAR-8, Log10 Concentration −8.0): 58%
GI50 (OVCAR-8; OVCAR-8, NCI five dose): 1990 nM
TGI (OVCAR-8; OVCAR-8, NCI five dose): 1.19E−4
Percent Growth (SW-620; Log10 Concentration −4.0): −75%
Percent Growth (SW-620; Log10 Concentration −5.0): −67%
Percent Growth (SW-620; Log10 Concentration −6.0): −19%
Percent Growth (SW-620; Log10 Concentration −7.0): 98%
Percent Growth (SW-620; Log10 Concentration −8.0): 93%
GI50 (SW-620; NCI five dose): 256 nM
TGI (SW-620; NCI five dose): 8.88E−7
CC50 (SW-620; read-out: LC50, NCI five dose): 4470 nM
CC50 (K-562): > 100000 nM
Percent Growth (K-562; K-562, Log10 Concentration −4.0): −24%
Percent Growth (K-562; K-562, Log10 Concentration −5.0): −1%
Percent Growth (K-562; K-562, Log10 Concentration −6.0): 5%
Percent Growth (K-562; K-562, Log10 Concentration −7.0): 98%
Percent Growth (K-562; K-562, Log10 Concentration −8.0): 100%
GI50 (K-562; K-562, NCI five dose): 327 nM
TGI (K-562; K-562, NCI five dose): 5.79E−6
CC50 (HCT-15): 2430 nM
Percent Growth (HCT-15; HCT-15, Log10 Concentration −4.0): −82%
Percent Growth (HCT-15; HCT-15, Log10 Concentration −5.0): −64%
Percent Growth (HCT-15; HCT-15, Log10 Concentration −6.0): −41%
Percent Growth (HCT-15; HCT-15, Log10 Concentration −7.0): 94%
Percent Growth (HCT-15; HCT-15, Log10 Concentration −8.0): 93%
GI50 (HCT-15; HCT-15, NCI five dose): 211 nM
TGI (HCT-15; HCT-15, NCI five dose): 4.95E−7
CC50 (HCT-116): 841 nM

From patent publication US9920063B2, “Melampomagnolide B derivatives” (Board of Trustees of the University of Arkansas, priority 2013, dated 2018)
